We go through one compound from patent publication US4744985A, “Novel substances having carcinostatic and immunostimulating activity, process for preparing the same and carcinostatic agent containing the same” (Toyama Chemical Co., Ltd., priority 1979, dated 1988).

The term T/C denotes the ratio of treated to control.

Assay [1] deals with B-16 melanoma. As to the kind of experiment: Antitumor activity against B-16 melanoma (tumor growth). The format is in vivo, BDF1 strain mice (male, 7 weeks old). The note with it: 20 mg/kg × 6. The procedure:
(§1) (1) B-16 Melanoma tumor cells were subcutaneously transplanted at the armpit to BDF1 strain mice (male, 7 weeks old) in an amount of 1×10^6 cells per mouse. Subsequently, TF-133a was intraperitoneally administered to the mice in a dosage of 5 mg/kg or 10 mg/kg once a day on the first day and from the third day to the seventh day, for 6 days in total, after the transplantation of the tumor cells. In the same manner as above, 0.2 ml of a physiological salt solution was administered to the control group, and 20 mg/kg of 5-FU to the group for 5-FU administration.

The subject of assay [2] is B-16 melanoma. The assay is described as follows: Metastasis of B-16 melanoma tumor cells to the lungs. It counts as in vivo, BDF1 strain mice (male, 7 weeks old). The note with it: 20 mg/kg × 6, 21st day. The method, then: as §1
(2) The transplantation of B-16 melanoma tumor cells and the administration of TF-132a, TF-133a, 5-FU and a physiological salt solution were carried out in the same manner as in above (1). On the 21st day after the transplantation of the tumor cells, the mice were dissected, and the metastasis of the melanoma tumor cells to the lungs was observed.

Take `O=c1[nH]cc(F)c(=O)[nH]1` [5-FU]: in the assay on B-16 melanoma [1], the Average tumor weight is reported as 4.21 g and the T/C came to 72%. Moreover, in the assay on B-16 melanoma [2], the “Average number of metastasis” value is recorded as 24.8 and the “Percentage of metastasis inhibition” value came out at 20%.
